Assay [1] has as its system HCC1806-XRCC1 KD (knock down) cells. The assay can be described thus: Cellular viability assay (Cell Titer-Glo). To be noted: 96 h, HCC1806-shXRCC1 cells, 4 days of incubation, read-out: PARGi cell viability. The assay is classed as cell-based. In a few lines:
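XRCC1-knockdown HCC1806 cells seeded 24 h before dosing; 9-point 1:3 dilution from 30 μM top concentration, duplicates, 4-day incubation. Viability by CellTiter-Glo luminescence, normalized to DMSO wells as % of control; curves fit with 4-parameter inhibition model.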
(In general: ATP-based viability assays read luminescence as a measure of living cells.)

In assay [2] the target is T1, PARG (Homo sapiens, UniProt Q86W56). The assay can be described thus: Inhibition of PARG enzymatic assay (TR-FRET enzymatic IC50 assay). The assay is classed as biochemical. The arrangement: purchased Peak Proteins. To be noted: hPARG 250 pM, biotinylated-PARylated PARP substrate 30 nM. In a few lines: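 Compound preincubated 1 h with 250 pM His-tagged hPARG, then 30 nM biotinylated PARylated hPARP1 substrate added for 10 min; buffer 50 mM Tris-HCl pH 7.4, EDTA/EGTA, 1 mM DTT, 23° C. TR-FRET read after 1 h with anti-His ULight antibody and streptavidin-europium; inhibition scaled between DMSO and no-enzyme controls.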
A general note: TR-FRET usually uses a lanthanide donor and a delayed reading to cut background.

Assay [3] deals with T1, PARG. The assay is described as follows: Inhibition of PARG cellular assay (PAR foci in HeLa cells after MMS). The assay is classed as cell-based. The arrangement: endogenous in cells; host or cells: HeLa. To be noted: compound 1 h then MMS 1 h. In a few lines: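 HeLa cells pretreated with compound for 1 h, then given MMS for a further 1 h, fixed and immunostained for PAR polymer. High-content imaging quantified nuclear PAR foci intensity (PAR Foci IC50) and percent cells with foci signal >1.3 (PAR % positive IC50).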

Bounds are passed on as bounds.

T1 sequence (Q86W56 whole entry): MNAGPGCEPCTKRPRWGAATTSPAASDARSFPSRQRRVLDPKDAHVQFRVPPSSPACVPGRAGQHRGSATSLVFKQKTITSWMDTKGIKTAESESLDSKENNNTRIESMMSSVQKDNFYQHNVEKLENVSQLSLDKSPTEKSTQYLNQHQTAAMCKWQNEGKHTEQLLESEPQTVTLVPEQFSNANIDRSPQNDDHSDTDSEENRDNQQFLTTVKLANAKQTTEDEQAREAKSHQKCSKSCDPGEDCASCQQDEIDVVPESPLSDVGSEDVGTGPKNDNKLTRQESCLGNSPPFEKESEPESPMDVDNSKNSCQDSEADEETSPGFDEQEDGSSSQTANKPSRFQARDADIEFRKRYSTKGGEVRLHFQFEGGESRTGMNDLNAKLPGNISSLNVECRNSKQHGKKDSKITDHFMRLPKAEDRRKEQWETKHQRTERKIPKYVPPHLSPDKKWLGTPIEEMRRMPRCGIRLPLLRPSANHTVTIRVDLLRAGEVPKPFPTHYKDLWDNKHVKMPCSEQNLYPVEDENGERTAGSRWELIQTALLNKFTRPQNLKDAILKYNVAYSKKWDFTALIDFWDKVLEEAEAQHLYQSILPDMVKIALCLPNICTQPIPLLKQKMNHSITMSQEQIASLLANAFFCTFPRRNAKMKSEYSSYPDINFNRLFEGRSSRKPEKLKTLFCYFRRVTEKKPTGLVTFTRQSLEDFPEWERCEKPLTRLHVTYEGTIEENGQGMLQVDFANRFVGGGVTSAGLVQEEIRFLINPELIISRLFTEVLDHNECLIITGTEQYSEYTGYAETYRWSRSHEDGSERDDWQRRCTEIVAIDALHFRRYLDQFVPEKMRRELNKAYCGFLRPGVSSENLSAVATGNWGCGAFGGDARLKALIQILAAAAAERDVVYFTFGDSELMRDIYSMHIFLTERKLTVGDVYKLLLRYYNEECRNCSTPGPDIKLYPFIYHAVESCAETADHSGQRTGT

As to `C[C@@H]1CN(c2cc(S(=O)(=O)NC3(C#N)CC3)cc3c2cnn3-c2nnc(C(F)F)s2)CCN1C(=O)C1(C)CC1` [Example 108, 1-{[(4-{(3R)-3-methyl-4-[(methylcyclopropyl)carbonyl]piperazinyl}-1-[5-(difluoro-methyl)(1,3,4-thiadiazol-2-yl)]-1H-indazol-6-yl)sulfonyl]amino}cyclopropane carbonitrile], the IC50 in assay [1] was less than 1000 nM; in assay [2] it was no more than 100 nM; in assay [3], no more than 100 nM.

`C[C@@H]1CN(c2cc(S(=O)(=O)NC3(C#N)CC3)cc3c2cnn3-c2nnc(C(F)F)s2)CCN1C(=O)C1(C)CCC1` [Example 109, 1-{[(4-{(3R)-3-methyl-4-[(methylcyclobutyl)carbonyl]piperazinyl}-1-[5-(difluoro-methyl)(1,3,4-thiadiazol-2-yl)]-1H-indazol-6-yl)sulfonyl]amino}cyclopropane carbonitrile]: the IC50 in assay [1] is less than 1000 nM; in assay [2] it was no more than 100 nM; in assay [3] it was no more than 100 nM.

On to `CCC(C)C(=O)N1CCN(c2cc(S(=O)(=O)NC3(C#N)CC3)cc3c2cnn3-c2nnc(C(F)F)s2)C[C@H]1C` (stereo partly drawn) [Example 110, 1-[({4-[(3R)-3-methyl-4-(2-methylbutanoyl)piperazinyl]-1-[5-(difluoromethyl)-(1,3,4-thiadiazol-2-yl)]-1H-indazol-6-yl}sulfonyl)amino]cyclopropane carbonitrile], for which the IC50 in assay [1] was less than 1000 nM; in assay [2] it was no more than 100 nM; in assay [3], 100 to 300 nM.

With `CC1(C(=O)N2CCN(c3cc(S(=O)(=O)NC4(C#N)CC4)cc4c3cnn4-c3nnc(C(F)F)s3)CC2)CC1` [Example 111, 1-{[(1-[5-(difluoromethyl)(1,3,4-thiadiazol-2-yl)]-4-{4-[(methylcyclopropyl)carbonyl]piperazinyl}-1H-indazol-6-yl)sulfonyl]amino}cyclopropanecarbonitrile], the results for the IC50 in assay [1], in assay [2] and in assay [3] were less than 1000 nM, no more than 100 nM and no more than 100 nM, respectively.

For the molecule `CC1(C(=O)N2CCN(c3cc(S(=O)(=O)NC4(C#N)CC4)cc4c3cnn4-c3nnc(C(F)F)s3)CC2)CCC1` [Example 112, 1-{[(1-[5-(difluoromethyl)(1,3,4-thiadiazol-2-yl)]-4-{4-[(methylcyclobutyl)carbonyl]piperazinyl}-1H-indazol-6-yl)sulfonyl]amino}cyclopropanecarbonitrile], the IC50 in assay [1] is less than 1000 nM; in assay [2] it was no more than 100 nM; in assay [3], no more than 100 nM.

As to `CCC(C)C(=O)N1CCN(c2cc(S(=O)(=O)NC3(C#N)CC3)cc3c2cnn3-c2nnc(C(F)F)s2)CC1` (stereo not drawn) [Example 113, 1-[({1-[5-(difluoromethyl)(1,3,4-thiadiazol-2-yl)]-4-[4-(2-methylbutanoyl)piperazinyl]-1H-indazol-6-yl}sulfonyl)amino]cyclopropanecarbonitrile], the IC50 is less than 1000 nM in assay [1], no more than 100 nM in assay [2] and no more than 100 nM in assay [3].

As to `N#CC1(NS(=O)(=O)c2cc(N3CCC4(CC3)COC4)c3c(Cl)nn(-c4nnc(C(F)F)s4)c3c2)CC1` [Example 114, 1-[({1-[5-(difluoromethyl)(1,3,4-thiadiazol-2-yl)]-3-chloro-4-(2-oxa-7-azaspiro[3.5]non-7-yl)-1H-indazol-6-yl}sulfonyl)amino]cyclopropanecarbonitrile], the IC50 is 10000 to 20000 nM in assay [1], 1000 to 10000 nM in assay [2] and 300 to 1000 nM in assay [3].

Turning to `CN(C)C(=O)N1CCN(c2cc(S(=O)(=O)NC3(C#N)CC3)cc3c2c(Cl)nn3-c2nnc(C(F)F)s2)CC1` [Example 115, [4-(1-[5-(difluoromethyl)(1,3,4-thiadiazol-2-yl)]-3-chloro-6-{[(cyanocyclopropyl)-amino]sulfonyl}(1H-indazol-4-yl))piperazinyl]-N,N-dimethylcarboxamide], the IC50 in assay [1] lay within 10000 to 20000 nM; in assay [2], 300 to 1000 nM; in assay [3], 300 to 1000 nM.

(Values after patent US20220389003A1, “4-SUBSTITUTED INDOLE AND INDAZOLE SULFONAMIDO DERIVATIVES AS PARG INHIBITORS” (IDEAYA BIOSCIENCES, INC., priority 2019, published 2022).)
